Test results from US5840485A, “Topologically segregated, encoded solid phase libraries” (priority 1994, dated 1998).
Entries after “also recorded” stand apart in the source; their conditions may differ. Where two headings read alike, the source gives them in different places.

Tests used:
[1] = test system: anti-β-endorphin antibody; assay: Antibody detection of model test compounds on non-sequentially coded beads; format: binding; details: test compound on bead surface, coding molecule inside
Description: The test compound sequences prepared were Tyr-Gly-Ala-Phe SEQ ID NO:12 and Phe-Gly-Ala-Phe SEQ ID NO:13, coded by doublets of amino acids (see Scheme XIC), and Tyr-Gly-Gly-Phe-Leu SEQ ID NO:14 and Phe(Cl)-Gly-Gly-Phe-Leu SEQ ID NO:15 (encoded by coding by Scheme XIB). […] Moreover, the fidelity and coding could be confirmed by directly sequencing the test peptides.
Therefore, the synthesis was not performed in successive steps of coupling test AA subunit followed by a pair of coding subunits, but rather using the more convenient scheme described below. […] The mixture of amino acids coding for phenylalanine in position four of the test compound structure (Boc-Sar and Boc-Asp(OBzl) in a molar ratio of 1:1 (reflecting their relatively equivalent coupling reactivity which had previously been determined experimentally) was coupled using DIC and HOBT (3 eq each). The reaction was monitored by bromophenol blue method. The resin was washed by DMF (5×) and the Dde group was deprotected by 2% hydrazine hydrate in DMF (10 min). The resin was washed by DMF (5×), 2% HOBT in DMF, and Fmoc-Lys(Dde) was coupled, and Fmoc group removed. The procedure of coupling mixtures of Boc amino acids and Fmoc-Lys(Dde) was repeated two times (coupling the coding subunit mixtures of Ile and Val (2:1) and Lys(ClZ) and Glu(OBzl) (1.5:1)) and after deprotection of the Dde group, Boc-Lys(Fmoc) was coupled to the resin in both syringes. […]

[2] = test system: anti-β-endorphin; assay: Semi-quantitative staining of peptide-beads blocked with polyglutamic acid, biotinyl-anti-β-endorphin followed by streptavidin-AP; format: binding
Description: TentaGel amide AM resin (0.3 meq/gram substitution) was hydrated in H2 O for several hours, and washed with 0.1M 2-[N-morpholino]ethanesulfonic acid (MES) buffer, pH 5.7. A varying amount (0 to 10 mg) of polyglutamic acid (Mr 30,000, Sigma Chemical) was added to each of the 0.2 ml of settled bead. Sixty mg of 1-ethyl-3-(3-dimethylamino-propyl) carbodiimide-HCl (EDC) was then added to each tube. The reaction mixtures were rocked gently overnight. The beads were then washed into double distilled (dd) H2 O and 0.24 mmol ethanolamine plus 60 mg EDC in MES buffer were added to each sample. After 4 hours of gentle shaking, the resin was washed extensively with dd H2 O. The resin was then lyophilized to dryness. The treated resin was swollen in dimethylformamide (DMF). Using Fmoc chemistry, the peptide, […] SEQ ID NO:11 was synthesized on each of the treated resin samples using standard techniques. The N-terminal Fmoc group and the side chain protected groups were removed with piperidine and trifluoracetic acid as described (Lam et al., 1991, Nature 354: 82-84).

[3] = test system: chymotrypsin; assay: Chymotrypsin cleavage of bead-bound substrates; format: biochemical; details: for cleavage by chymotrypsin (substrate quality) / decrease in the total amount of peptide on bead after chymotrypsin: bead-bound peptide
Description: (§1) Beads were carefully washed and transferred to 0.1M ammonium carbonate buffer of pH 7.7. Chymotrypsin (1 mg) was added and suspension was shaken at 37° C. for 20 hours. The same treatment was repeated twice for 4 hours.
Resin was washed and transferred to the 0.1M ammonium carbonate buffer pH 7.7. Chymotrypsin treatment was performed in the same way as described above.
A simple substrate for chymotrypsin, Boc-Phe, was synthesized on all available amino groups of the solid carrier.

[4] = test system: anti-β-endorphin monoclonal antibody (clone 3-E 7); assay: Screening of encoded peptide library XXXX-Lys(XXXX)-Lys(ZZ) on beads; format: binding; details: Table 3, two cycles of Edman degradation
Description: After thorough washing, streptavidin-alkaline phosphatase was added. One hour later, the beads were washed, substrate was added, and color development proceeded as described above. The color beads were then physically isolated and subjected to sequencing. In these two experiments, only the darkest beads were sequenced.

[5] = molecular target: T1, streptavidin (Streptomyces avidinii, UniProt P22629); details: for activity with streptavidin after chymotrypsin: in words
Description: as §1
(§2) Beads were carefully washed and prepared for staining with anti-β-endorphin as described previously.
(§3) Treated beads were tested for binding to anti-β-endorphin and streptavidin.

[6] = test system: anti-β-endorphin antibody; assay: Binding to peptide beads (staining) with or without chymotrypsin treatment / surface synthesis
Description: as §1, §2, §3

[7] = molecular target: T1, streptavidin; assay: Screening of encoded peptide library XXXX-Lys(XXXX)-Lys(ZZ) on beads; format: binding; details: Table 3, two cycles of Edman degradation
Description: The peptide library was screened according to published procedures (Lam and Lebl, 1992, Immunomethods 1: 11-15). The peptide beads were first mixed with double-distilled water to remove the DMF. After extensive washing with PBS (137 mM NaCl, 2.7 mM KCl, 4.3 mM Na2 HPO4, 1.4 mM KH2 PO4, pH 7.2), the beads were coated with 0.05% gelatin (w/v) to block any nonspecific binding. The beads were then incubated with a 1:100,000 dilution of streptavidin-alkaline phosphatase at 2 mg/ml (Pierce; Rockford, Ill.) in 2× PBS/Tween/gelatin (2× PBS, 0.1% Tween-20 (v/v), and 0.05% gelatin (w/v)). The beads were then thoroughly washed with TBS (137 mM NaCl, 2.7 mM KCl, 25 mM Tris base, pH 7.4) and the standard substrate 5-bromo-4-chloro-3-indolyl phosphate was added. The beads, together with the substrate, were then transferred to petri dishes for color development. After 30 minutes to 1 hour, the colored beads were collected, with the aid of a micropipette, washed with 6M guanidine hydrochloride, pH 1.0, and subjected to sequencing as described.
This library was used in the screening against two model targets, anti-β-endorphin monoclonal antibody, and streptavidin. […]

[8] = two-peptide beads, surface deprotected by chymotrypsin

T1 sequence (P22629 25-183): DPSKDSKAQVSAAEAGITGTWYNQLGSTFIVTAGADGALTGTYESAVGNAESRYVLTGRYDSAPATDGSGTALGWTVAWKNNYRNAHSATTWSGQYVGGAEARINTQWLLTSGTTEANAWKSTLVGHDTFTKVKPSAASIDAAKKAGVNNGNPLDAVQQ

Phe-Gly-Ala-Phe (FGAF)
detection by anti-β-endorphin antibody [1]: negative control

YGGFLGGG [peptide synthesized on polyglutamic acid treated resin]
staining of polyglutamic acid-blocked resin ([2]; blocked resin, in words): stained only weakly
Labeling with biotinyl-anti-β-endorphin followed by streptavidin-AP ([2]; polyglutamic acid 10 mg per 0.2 ml resin): trace

LHFQF: LHFQF SEQ ID NO:10 was a poor substrate for chymotrypsin
cleavage by chymotrypsin (substrate quality) [3]: poor substrate

YGPF: test peptide sequence deduced from positive beads of the encoded library
Target of positive bead, deduced sequence [4]: anti-β-endorphin

YGGF: test peptide sequence deduced from positive beads of the encoded library
Target of positive bead, deduced sequence [4]: anti-β-endorphin

CC(C)(C)OC(=O)N[C@@H](Cc1ccccc1)C(=O)O [Boc-Phe]
release of Boc-Phe by chymotrypsin ([3]; Boc-Phe on all available amino groups of carrier, various conditions): ~1.1%

Tyr-Gly-Ala-Phe (YGAF)
detection by anti-β-endorphin antibody [1]: positive
detection by anti-β-endorphin antibody ([1]; listed as Tyr-Gly-Ala-Phe): can be detected

LHPQF
reaction with streptavidin of beads with YGGFL on surface and LHPQF inside [5, 8]: positive reaction; also recorded: still available for interaction with streptavidin

YGGFL
decrease in the total amount of peptide on bead after chymotrypsin [3]: minimal
binding activity to anti-β-endorphin antibody after chymotrypsin ([6]; after chymotrypsin, in words): completely lost binding activity
staining / reaction with anti-β-endorphin of beads with YGGFL on surface and second peptide inside [6, 8]: indistinguishable from staining of the beads containing only YGGFL sequence; also recorded: positive reaction; also recorded: available on the surface of the bead for the interaction with the relevant acceptor

LHPQFYG [model peptide synthesized on TentaGel AM with linker β-Ala-Gly-β-Ala-Gly]
activity with streptavidin after chymotrypsin [5]: completely abrogated
activity with streptavidin after chymotrypsin ([5]; listed as LHPQF-YG): completely lost activity
cleavage by chymotrypsin (substrate quality) [3]: proceeded efficiently
decrease in the total amount of peptide on bead after chymotrypsin [3]: minimal

HPQF: test peptide sequence deduced from positive beads of the encoded library
Target of positive bead, deduced sequence [7]: streptavidin positive
